Assay results published in patent publication US6433175B1, “Pyrroloindoles, pyridoindoles and azepinoindoles as 5-ht2c agonists” (Vernalis Research Limited, priority 1998, dated 2002).
Counter-ions that a name gives are not always drawn. Like-named read-outs stand apart in the source and are kept apart here.

Tests used:
rats [1] = details: cited from earlier work
[2] = cited from earlier work
human 5-HT2B receptors = biological target: T1, human 5-HT2B receptors (Homo sapiens, UniProt P41595); assay: Binding to 5-HT2B receptor, [3H]-5-HT, CHO cell line
T1 construct: expressed in transfected cells; host or cells: CHO cell line
Method: (§1) The binding of compounds of formula (I) to serotonin receptors was determined in vitro by standard methods. The preparations were investigated in accordance with the assays given hereinafter.
Method (b): For the binding to the 5-HT2B receptor the 5-HT2B receptors were radiolabeled with [^3H]-5-HT. The affinity of the compounds for human 5-HT2B receptors in a CHO cell line was determined according to the procedure of K. Schmuck, C. Ullmer, P. Engels and H. Lubbert, FEBS Lett., 1994, 342, 85-90.

5-HT2A receptor [3] = biological target: T2, 5-HT2A receptor (Homo sapiens, UniProt P28223); assay: Functional activity, FLIPR calcium assay, CHO cells expressing human 5-HT2A; type: cell-based; parameters: expressed in transfected cells; host or cells: CHO cells; details: for EC50: CHO cells; for h5-HT2A Relative Efficacy: maximum fluorescent signal relative to 10 μM 5-HT (100%)
Method: (§2) The functional activity of compounds of formula (I) was assayed using a Fluorimetric Imaging Plate reader (FLIPR). CHO cells expressing the human 5-HT2C or human 5-HT2A receptors were counted and plated into standard 96 well microtitre plates on the day before testing to give a confluent monolayer. The cells were then dye loaded with the calcium sensitive dye, Fluo-3-AM. Unincorporated dye was removed using an automated cell washer to leave a total volume of 100 μL/well of assay buffer (Hanks balanced salt solution containing 20 mM Hepes and 2.5 mM probenecid). The drug (dissolved in 50 μL of the assay buffer) was added at a rate of 70 μL/sec to each well of the FLIPR 96 well plate during fluorescence measurements. The measurements were taken at 1 sec intervals and the maximum fluorescent signal was measured (approx 10-15 secs after drug addition) and compared with the response produced by 10 μM 5-HT (defined as 100%) to which it was expressed as a percentage response (relative efficacy). Dose response curves were constructed using Graphpad Prism (Graph Software Inc.).

human 5-HT2C [4] = biological target: T3, human 5-HT2C (Homo sapiens, UniProt P28335); assay: Functional activity, FLIPR calcium assay, CHO cells expressing human 5-HT2C; type: cell-based; parameters: expressed in transfected cells; host or cells: CHO cells; details: for EC50: CHO cells; for h5-HT2c Relative Efficacy: maximum fluorescent signal relative to 10 μM 5-HT (100%)
T3 sequence (P28335 33-458): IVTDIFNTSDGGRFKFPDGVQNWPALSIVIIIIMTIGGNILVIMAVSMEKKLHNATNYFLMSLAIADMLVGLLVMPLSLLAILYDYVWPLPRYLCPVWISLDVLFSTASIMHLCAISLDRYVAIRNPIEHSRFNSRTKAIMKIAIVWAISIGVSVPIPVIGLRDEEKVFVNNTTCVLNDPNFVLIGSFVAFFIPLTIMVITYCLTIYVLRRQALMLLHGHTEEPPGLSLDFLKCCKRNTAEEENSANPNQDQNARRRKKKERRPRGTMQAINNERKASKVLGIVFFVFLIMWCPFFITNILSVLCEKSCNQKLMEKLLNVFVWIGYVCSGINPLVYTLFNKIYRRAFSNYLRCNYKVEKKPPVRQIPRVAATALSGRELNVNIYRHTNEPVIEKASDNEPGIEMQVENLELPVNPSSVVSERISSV
Method: as §2

human 5-HT2C [5] = biological target: T3, human 5-HT2C; assay: Binding to 5-HT2C receptor, [3H]-5-HT, CHO cell line; parameters: expressed in transfected cells; host or cells: CHO cell line
Method: as §1
Method (a): For the binding to the 5-HT2C receptor the 5-HT2C receptors were radiolabeled with [^3H]-5-HT. The affinity of the compounds for 5-HT2C receptors in a CHO cell line was determined according to the procedure of D. Hoyer, G. Engel and H. O. Kalkman, European J. Pharmacol., 1985, 118, 13-23.

5-HT2A receptor [6] = biological target: T2, 5-HT2A receptor; assay: Binding to 5-HT2A receptor, [125I]-DOI, CHO cell line; parameters: expressed in transfected cells; host or cells: CHO cell line
Method: as §1
Method (c): For the binding to the 5-HT2A receptor the 5-HT2A receptors were radiolabeled with [^125I]-DOI. The affinity of the compounds for 5-HT2A receptors in a CHO cell line was determined according to the procedure of D. J. McKenna and S. J. Peroutka, J. Neurosci., 1989, 9, 3482-90.

rats [7] = assay: In vivo efficacy: 5-HT2C syndrome in rats; parameters: species or system rat; details: 20 mg/kg s.c.
Method: The in vivo efficacy of 5-HT2C agonists was assessed by the ability of the compounds to induce three specific behaviours (5HT2C Syndrome) in rats.
The 5-HT2c syndrome is a rapid screening method to assess the in vivo efficacy of 5-HT2c agonists through their ability to induce three specific behaviours in rats. The animals were dosed with either a positive control (mCPP), test compound or vehicle, either sub-cutaneously or p.o. The animals were observed on an open bench, typically 30, 60 and 180 minutes after dosing and the degree of syndrome was assessed over a two minute period on a scale of 0-3 depending on the presence and severity of splayed limbs, hunched posture and retro-pulsion, the three specific behaviours which constitute the syndrome. Data were analysed using Kruskal-Wallis Analysis of Variance followed with appropriate post-hoc tests. All statistical analysis were conducted using Excel version 7.0 (Microsoft Corp.) and Statistica version 5.0 (Statsoft, Inc.).

[8] = [3H]-5-HT, human receptor, CHO cell line, read-out: Ki (2B)
[9] = [3H]-5-HT, CHO cell line, read-out: Ki (2C)
[10] = [125I]-DOI, CHO cell line, read-out: Ki (2A)

T1 sequence (P41595 whole entry): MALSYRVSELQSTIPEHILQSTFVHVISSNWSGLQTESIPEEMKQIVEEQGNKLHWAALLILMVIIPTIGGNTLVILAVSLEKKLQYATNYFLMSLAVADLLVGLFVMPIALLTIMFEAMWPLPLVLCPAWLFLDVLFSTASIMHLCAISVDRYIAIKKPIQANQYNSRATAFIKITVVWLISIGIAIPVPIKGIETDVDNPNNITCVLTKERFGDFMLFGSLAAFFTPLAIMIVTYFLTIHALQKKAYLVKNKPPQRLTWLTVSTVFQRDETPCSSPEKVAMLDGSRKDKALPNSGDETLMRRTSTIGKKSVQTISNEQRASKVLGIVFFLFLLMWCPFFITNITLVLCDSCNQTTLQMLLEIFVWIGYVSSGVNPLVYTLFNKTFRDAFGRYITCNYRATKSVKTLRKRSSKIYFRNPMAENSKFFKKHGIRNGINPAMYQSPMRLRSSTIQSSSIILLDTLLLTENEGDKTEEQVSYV
T2 sequence (P28223 whole entry): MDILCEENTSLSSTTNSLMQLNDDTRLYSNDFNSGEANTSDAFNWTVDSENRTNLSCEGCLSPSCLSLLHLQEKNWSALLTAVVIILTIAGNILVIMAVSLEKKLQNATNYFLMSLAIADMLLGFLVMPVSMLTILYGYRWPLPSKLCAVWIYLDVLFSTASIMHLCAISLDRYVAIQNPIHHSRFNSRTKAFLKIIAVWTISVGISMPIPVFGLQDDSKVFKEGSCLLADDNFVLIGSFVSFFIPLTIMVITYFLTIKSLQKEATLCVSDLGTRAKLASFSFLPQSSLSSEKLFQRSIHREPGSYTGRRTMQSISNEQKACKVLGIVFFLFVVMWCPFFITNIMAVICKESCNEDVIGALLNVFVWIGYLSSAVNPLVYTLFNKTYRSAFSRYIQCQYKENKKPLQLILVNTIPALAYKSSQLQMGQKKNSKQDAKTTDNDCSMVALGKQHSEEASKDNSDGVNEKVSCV

Structure (SMILES) | melting point | h5-HT2A Relative Efficacy (5-HT2A receptor [3]) [%] | h5-HT2c Relative Efficacy (human 5-HT2C [4]) [%] | EC50 (5-HT2A receptor [3]; FLIPR, read-out: h5-HT2A EC50) [nM] | EC50 (human 5-HT2C [4]; h5-HT2c EC50, FLIPR) [nM] | also measured
Cc1ccc2c(c1)c(CC(C)N)c1n2CCC1 (racemic) (as salt: fumarate) [Example 6, (RS)-1-(7-Methyl-2,3-dihydro-1H-pyrrolo[1,2-a]indol-9-yl)-2-propylamine fumarate] | 138 to 139 °C | – | – | – | – | –
CC(N)Cc1c2n(c3cc(F)c(F)cc13)CCC2 (racemic) (as salt: hydrochloride) [Example 2, (RS)-1-(6,7-Difluoro-2,3-dihydro-1H-pyrrolo[1,2-a]indol-9-yl)-2-propylamine hydrochloride] | 264 to 266 °C | – | – | – | – | –
Clc1cccc(N2CCNCC2)c1 [mCPP, m-chlorophenylpiperazine] | – | – | – | – | – | food intake in rats (rats [1]): reduce food intake; appetite and body weight of obese subjects ([2]; obese male and female subjects, subchronic treatment for 14 days): decreased the appetite and body weight; food intake in female volunteers ([2]; single dose, female volunteers): decreased food intake
COc1ccc2c(c1)c(CC(C)NCC1CCCCC1)c1n2CCC1 (racemic) (as salt: hydrochloride) | 210 to 213 °C | – | – | – | – | –
CC(N)Cc1c2n(c3cc(F)c(F)cc13)CCC2 (racemic) [Example 2, (RS)-1-(6,7-Difluoro-2,3-dihydro-1H-pyrrolo[1,2-a]indol-9-yl)-2-propylamine hydrochloride] | – | 12 | 38 | – | – | Ki (human 5-HT2B receptors): 102 nM; EC50 (5-HT2A receptor [3]; h5-HT2A EC50, FLIPR): > 1000 nM; EC50 (human 5-HT2C [4]; FLIPR, read-out: h5-HT2c EC50): 147 nM; Ki (human 5-HT2C [5]): 97 nM; Ki (5-HT2A receptor [6]): 257 nM
COc1ccc2c(c1)c(CC(C)NCC(C)(C)C)c1n2CCC1 (racemic) (as salt: hydrochloride) | 226 to 228 °C | – | – | – | – | –
CSc1ccc2c(c1)c(CC(C)N)c1n2CCC1 (racemic) [Example 11, (RS)-1-(7-Methylthio-2,3-dihydro-1H-pyrrolo[1,2-a]indol-9-yl)-2-propylamine fumarate] | – | – | 80 | > 10000 | 8 | Ki (human 5-HT2B receptors; [8]): 115 nM; Ki (human 5-HT2C [5]; [9]): 84 nM; Ki (5-HT2A receptor [6]; [10]): 316 nM
CC(N)Cc1c2n(c3ccc(Br)cc13)CCC2 (racemic) [Example 5, (RS)-1-(7-Bromo-2,3-dihydro-1H-pyrrolo[1,2-a]indol-9-yl)-2-propylamine fumarate] | – | 33 | 69 | 4020 | 94 | Ki (human 5-HT2B receptors; [8]): 122 nM; Ki (human 5-HT2C [5]; [9]): 81 nM; Ki (5-HT2A receptor [6]; [10]): 448 nM
COc1ccc2c(c1)c(CC(C)N)c1n2CCC1 (single isomer, unassigned; enantiomer 2) [Example 9, Enantiomer 2 of 1-(7-Methoxy-2,3-dihydro-1H-pyrrolo[1,2-a]indol-9-yl)-2-propylamine fumarate] | – | 40 | 81 | 792 | 7 | –
COc1ccc2c(c1)c(CC(C)NCC1CC1)c1n2CCC1 (racemic) (as salt: hydrochloride) | 149 to 151 °C | – | – | – | – | –
CC(N)Cc1c2n(c3cccc(Cl)c13)CCC2 (racemic) (as salt: fumarate) | 207 to 208 °C | – | – | – | – | –
CC(N)Cc1c2n(c3ccc(Cl)cc13)CCC2 (racemic) [Example 1, (RS)-1-(7-Chloro-2,3-dihydro-1H-pyrrolo[1,2-a]indol-9-yl)-2-propylamine hydrochloride] | – | 33 | 68 | 3240 | 96 | Ki (human 5-HT2B receptors; [8]): 229 nM; Ki (human 5-HT2C [5]; [9]): 110 nM; Ki (5-HT2A receptor [6]; [10]): 457 nM
COc1ccc2c(c1)c(CC(C)N)c1n2CCC1 (racemic) [Example 3, (RS)-1-(7-Methoxy-2,3-dihydro-1H-pyrrolo[1,2-a]indol-9-yl)-2-propylamine fumarate] | – | 22 | 63 | 636 | 32 | Ki (human 5-HT2B receptors; [8]): 220 nM; time for which significant pharmacological efficacy is maintained (5-HT2C syndrome) (rats [7]): at least 180 minutes; Ki (human 5-HT2C [5]; [9]): 118 nM; Ki (5-HT2A receptor [6]; [10]): 151 nM
COc1ccc2c(c1)c(CC(C)N)c1n2CCC1 (racemic) (as salt: fumarate) [Example 3, (RS)-1-(7-Methoxy-2,3-dihydro-1H-pyrrolo[1,2-a]indol-9-yl)-2-propylamine fumarate] | 194 to 196 °C | – | – | – | – | –
CC(N)Cc1c2n(c3cc4c(cc13)OCO4)CCC2 (racemic) [Example 7, (RS)-1-[6,7-(Methylenedioxy)-2,3-dihydro-1H-pyrrolo[1,2-a]indol-9-yl]-2-propylamine fumarate] | – | 37 | 59 | 2620 | 227 | –
COc1ccc2c(c1)c(CC(C)NCCC(C)C)c1n2CCC1 (racemic) (as salt: hydrochloride) | 118 to 121 °C | – | – | – | – | –
CC(N)Cc1c2n(c3ccc(Cl)cc13)CCC2 (racemic) (as salt: hydrochloride) [Example 1, (RS)-1-(7-Chloro-2,3-dihydro-1H-pyrrolo[1,2-a]indol-9-yl)-2-propylamine hydrochloride] | 272 to 273 °C | – | – | – | – | –
CC(N)Cc1c2n(c3ccc(OCc4ccccc4)cc13)CCC2 (racemic) (as salt: fumarate) | 146 to 147 °C (dec.) | – | – | – | – | –
CSc1ccc2c(c1)c(CC(C)N)c1n2CCC1 (racemic) (as salt: fumarate) [Example 11, (RS)-1-(7-Methylthio-2,3-dihydro-1H-pyrrolo[1,2-a]indol-9-yl)-2-propylamine fumarate] | 204 to 206 °C (dec.) | – | – | – | – | –
COc1ccc2c(c1)c(CC(C)N)c1n2CCC1 (single isomer, unassigned; enantiomer 1) [Example 8] | – | 36 | 58 | 921 | 33 | –
Cc1ccc2c(c1)c(CC(C)N)c1n2CCC1 (racemic) [Example 6, (RS)-1-(7-Methyl-2,3-dihydro-1H-pyrrolo[1,2-a]indol-9-yl)-2-propylamine fumarate] | – | – | 56 | > 10000 | 348 | –
